Data set [1] has as its system Rattus norvegicus. The data set can be described thus: Hypocholesterolemic activity in Wistar rat model with high cholesterol diet assessed as reduction in liver NAFLD activity score at 6 mg/kg, po qd measured after 23 days by H and E staining assay. It counts as functional. As to conditions: time 23 day.
The test system of data set [2] is Rattus norvegicus. The data set can be described thus: Hypocholesterolemic activity in Wistar rat model with high cholesterol diet assessed as reduction of steatosis at 6 mg/kg, po qd measured after 23 days by H and E staining assay relative to control. Type of data set: functional. The settings on record: time 23 day. Details: scale not given: the % may be the effect or the level left.

Data set [3] concerns Rattus norvegicus. The data set can be described thus: Effect on liver weight in Wistar rat model with high cholesterol diet at 6 mg/kg, po qd measured after 23 days. Type of data set: ADME, organism-based. The settings on record: in vivo, 552 h, time 23 day.
The subject of data set [4] is Rattus norvegicus. The data set can be described thus: Effect on body weight in Wistar rat model with high cholesterol diet at 6 mg/kg, po qd measured after 23 days. It counts as ADME, organism-based. The settings on record: in vivo, 552 h, time 23 day.
The test system of data set [5] is Rattus norvegicus. The experiment in a line: Hypocholesterolemic activity in Wistar rat model with high cholesterol diet assessed as amount of Triglycerides in serum at 6 mg/kg, po qd measured after 23 days by microplate reader assay relative to control. Type of data set: functional. The settings on record: time 23 day.
Data set [6] has as its system Rattus norvegicus. The experiment in a line: Effect on Wistar rat model with high cholesterol diet assessed as ratio of liver weight to body weight at 6 mg/kg, po qd measured after 23 days. It counts as ADME, organism-based. As to conditions: in vivo, 552 h, time 23 day.
In data set [7] the test system is Rattus norvegicus. The experiment in a line: Hypocholesterolemic activity in Wistar rat model with high cholesterol diet assessed as amount of HDL-C in serum at 6 mg/kg, po qd measured after 23 days by microplate reader assay relative to control. It counts as functional. The settings on record: time 23 day.
Data set [8] has as its system Rattus norvegicus. The experiment in a line: Hypocholesterolemic activity in Wistar rat model with high cholesterol diet assessed as reduction in liver lobular inflammation at 6 mg/kg, po qd measured after 23 days by H and E staining assay. Type of data set: functional. The settings on record: time 23 day.
Data set [9] deals with Rattus norvegicus. The experiment in a line: Hypocholesterolemic activity in Wistar rat model with high cholesterol diet assessed as amount of LDL-C in serum at 6 mg/kg, po qd measured after 23 days by microplate reader assay relative to control. It counts as functional. As to conditions: time 23 day.
The test system of data set [10] is Rattus norvegicus. The data set can be described thus: Hypocholesterolemic activity in Wistar rat model with high cholesterol diet assessed as reduction of steatosis at 6 mg/kg, po qd measured after 23 days by H and E staining assay. As to conditions: time 23 day. It counts as functional.
In data set [11] the test system is Rattus norvegicus. The data set can be described thus: Hypocholesterolemic activity in Wistar rat model with high cholesterol diet assessed as liver NAFLD activity score at 6 mg/kg, po qd measured after 23 days by H and E staining assay relative to control. The settings on record: time 23 day. Type of data set: functional.
The subject of data set [12] is Rattus norvegicus. The experiment in a line: Effect on body weight gain in Wistar rat model with high cholesterol diet at 6 mg/kg, po qd measured after 23 days relative to control. It counts as ADME, organism-based. The settings on record: in vivo, 552 h, time 23 day.
Data set [13] relates to Rattus norvegicus. The experiment in a line: Hypocholesterolemic activity in Wistar rat model with high cholesterol diet assessed as amount of Total cholesterol in serum at 6 mg/kg, po qd measured after 23 days by microplate reader assay relative to control. It counts as functional. The settings on record: time 23 day.

Structures are written as SMILES.

With `COc1cc(C[C@H](CO[C@@H]2O[C@H](CO)[C@@H](O)[C@H](O)[C@H]2O)[C@@H](CO[C@@H]2O[C@H](CO)[C@@H](O)[C@H](O)[C@H]2O)Cc2ccc(O)c(OC)c2)ccc1O` [(+)-SECOISOLARICIRESINOLDIGLUCOSIDE], the Activity in the data set with Rattus norvegicus [1] is 2.4; with Rattus norvegicus [2] it was 22.2%; in the data set with Rattus norvegicus [3] it was 10.4 g; in the data set on Rattus norvegicus [4], 330 g; in the data set on Rattus norvegicus [5] it was 15%; in the data set with Rattus norvegicus [6], 31.5 g/kg. Further, the Activity came out at 24% in the data set with Rattus norvegicus [7]; 1 with Rattus norvegicus [8]; 14% in the data set on Rattus norvegicus [9]; 1.4 in the data set with Rattus norvegicus [10]; 14.3% in the data set with Rattus norvegicus [11]; 32% in the data set with Rattus norvegicus [12]. The Activity in the data set on Rattus norvegicus [13] is 10%.

The record behind these values is ChEMBL document CHEMBL5032531, “Hypocholesterolemic Efficacy of Secoisolariciresinol Diglucoside and Its Polymer in Rat” (J Nat Prod, 2021).
